Test results: ChEMBL document CHEMBL3045187, “Chemical weed control in seedbed sown onion (Allium cepa L.)” (Crop Prot, 2006)

How the values were obtained:
Malva sylvestris [1] = assay: Herbicidal activity against Malva sylvestris assessed as total dry weight at 7 kg/ha applied as spray before seed sowing (reference value: 4.1 MT/ha); format: functional
Allium cepa [2] = assay: Phytotoxicity in Allium cepa (onion) seedling assessed as total fresh weight at 7 kg/ha applied as spray before seed sowing (reference value: 7.71 MT/ha); format: organism-based; conditions: in vivo, other
Cyperus rotundus [3] = assay: Herbicidal activity against Cyperus rotundus assessed as total fresh weight at 7 kg/ha applied as spray before seed sowing (reference value: 23.6 MT/ha); format: functional
Chenopodiastrum murale [4] = assay: Herbicidal activity against Chenopodium murale assessed as total fresh weight at 7 kg/ha applied as spray before seed sowing (reference value: 23.6 MT/ha); format: functional
Chenopodiastrum murale [5] = assay: Herbicidal activity against Chenopodium murale assessed as total dry weight at 7 kg/ha applied as spray before seed sowing (reference value: 4.1 MT/ha); format: functional
Cyperus rotundus [6] = assay: Herbicidal activity against Cyperus rotundus assessed as total dry weight at 7 kg/ha applied as spray before seed sowing (reference value: 4.1 MT/ha); format: functional
Malva sylvestris [7] = assay: Herbicidal activity against Malva sylvestris assessed as total fresh weight at 7 kg/ha applied as spray before seed sowing (reference value: 23.6 MT/ha); format: functional
Allium cepa [8] = assay: Phytotoxicity in Allium cepa (onion) seedling assessed as total fresh weight at 3.75 kg/ha applied as spray before seed sowing (reference value: 7.71 MT/ha); format: organism-based; conditions: in vivo, other
Cyperus rotundus [9] = assay: Herbicidal activity against Cyperus rotundus assessed as total dry weight at 3.75 kg/ha applied as spray before seed sowing (reference value: 4.1 MT/ha); format: functional
Malva sylvestris [10] = assay: Herbicidal activity against Malva sylvestris assessed as total dry weight at 3.75 kg/ha applied as spray before seed sowing (reference value: 4.1 MT/ha); format: functional
Chenopodiastrum murale [11] = assay: Herbicidal activity against Chenopodium murale assessed as total dry weight at 3.75 kg/ha applied as spray before seed sowing (reference value: 4.1 MT/ha); format: functional
Chenopodiastrum murale [12] = assay: Herbicidal activity against Chenopodium murale assessed as total fresh weight at 3.75 kg/ha applied as spray before seed sowing (reference value: 23.6 MT/ha); format: functional
Cyperus rotundus [13] = assay: Herbicidal activity against Cyperus rotundus assessed as total fresh weight at 3.75 kg/ha applied as spray before seed sowing (reference value: 23.6 MT/ha); format: functional
Malva sylvestris [14] = assay: Herbicidal activity against Malva sylvestris assessed as total fresh weight at 3.75 kg/ha applied as spray before seed sowing (reference value: 23.6 MT/ha); format: functional
Chenopodiastrum murale [15] = assay: Herbicidal activity against Chenopodium murale assessed as total dry weight at 2.45 kg/ha applied as spray before seed sowing (reference value: 4.1 MT/ha); format: functional
Chenopodiastrum murale [16] = assay: Herbicidal activity against Chenopodium murale assessed as total fresh weight at 2.45 kg/ha applied as spray before seed sowing (reference value: 23.6 MT/ha); format: functional
Allium cepa [17] = assay: Phytotoxicity in Allium cepa (onion) seedling assessed as total fresh weight at 2.45 kg/ha applied as spray before seed sowing (reference value: 7.71 MT/ha); format: organism-based; conditions: in vivo, other
Cyperus rotundus [18] = assay: Herbicidal activity against Cyperus rotundus assessed as total fresh weight at 2.45 kg/ha applied as spray before seed sowing (reference value: 23.6 MT/ha); format: functional
Malva sylvestris [19] = assay: Herbicidal activity against Malva sylvestris assessed as total dry weight at 2.45 kg/ha applied as spray before seed sowing (reference value: 4.1 MT/ha); format: functional
Cyperus rotundus [20] = assay: Herbicidal activity against Cyperus rotundus assessed as total dry weight at 2.45 kg/ha applied as spray before seed sowing (reference value: 4.1 MT/ha); format: functional
Malva sylvestris [21] = assay: Herbicidal activity against Malva sylvestris assessed as total fresh weight at 2.45 kg/ha applied as spray before seed sowing (reference value: 23.6 MT/ha); format: functional
Cyperus rotundus [22] = assay: Herbicidal activity against Cyperus rotundus assessed as total fresh weight at 0.35 kg/ha applied as spray before seed sowing (reference value: 23.6 MT/ha); format: functional
Allium cepa [23] = assay: Phytotoxicity in Allium cepa (onion) seedling assessed as total fresh weight at 0.35 kg/ha applied as spray before seed sowing (reference value: 7.71 MT/ha); format: organism-based; conditions: in vivo, other
Chenopodiastrum murale [24] = assay: Herbicidal activity against Chenopodium murale assessed as total dry weight at 0.35 kg/ha applied as spray before seed sowing (reference value: 4.1 MT/ha); format: functional
Chenopodiastrum murale [25] = assay: Herbicidal activity against Chenopodium murale assessed as total fresh weight at 0.35 kg/ha applied as spray before seed sowing (reference value: 23.6 MT/ha); format: functional
Malva sylvestris [26] = assay: Herbicidal activity against Malva sylvestris assessed as total dry weight at 0.35 kg/ha applied as spray before seed sowing (reference value: 4.1 MT/ha); format: functional
Malva sylvestris [27] = assay: Herbicidal activity against Malva sylvestris assessed as total fresh weight at 0.35 kg/ha applied as spray before seed sowing (reference value: 23.6 MT/ha); format: functional
Cyperus rotundus [28] = assay: Herbicidal activity against Cyperus rotundus assessed as total dry weight at 0.35 kg/ha applied as spray before seed sowing (reference value: 4.1 MT/ha); format: functional
Chenopodiastrum murale [29] = assay: Herbicidal activity against Chenopodium murale assessed as total dry weight at 0.75 kg/ha applied as spray before seed sowing (reference value: 4.1 MT/ha); format: functional
Malva sylvestris [30] = assay: Herbicidal activity against Malva sylvestris assessed as total dry weight at 0.75 kg/ha applied as spray before seed sowing (reference value: 4.1 MT/ha); format: functional
Cyperus rotundus [31] = assay: Herbicidal activity against Cyperus rotundus assessed as decrease in total dry weight at 0.75 kg/ha applied as spray during post-emergence relative to weed-infested control; format: functional; set-up: scale not given: the % may be the effect or the level left
Chenopodiastrum murale [32] = assay: Herbicidal activity against Chenopodium murale assessed as total fresh weight at 0.75 kg/ha applied as spray before seed sowing (reference value: 23.6 MT/ha); format: functional
Malva sylvestris [33] = assay: Herbicidal activity against Malva sylvestris assessed as total fresh weight at 0.75 kg/ha applied as spray before seed sowing (reference value: 23.6 MT/ha); format: functional
Allium cepa [34] = assay: Phytotoxicity in Allium cepa (onion) seedling assessed as total fresh weight at 0.75 kg/ha applied as spray before seed sowing (reference value: 7.71 MT/ha); format: organism-based; conditions: in vivo, other
Cyperus rotundus [35] = assay: Herbicidal activity against Cyperus rotundus assessed as total fresh weight at 0.75 kg/ha applied as spray during post-emergence (reference value: 23.6 MT/ha); format: functional
Cyperus rotundus [36] = assay: Herbicidal activity against Cyperus rotundus assessed as total fresh weight at 0.75 kg/ha applied as spray before seed sowing (reference value: 23.6 MT/ha); format: functional
Malva sylvestris [37] = assay: Herbicidal activity against Malva sylvestris assessed as total fresh weight at 0.75 kg/ha applied as spray during post-emergence (reference value: 23.6 MT/ha); format: functional
Cyperus rotundus [38] = assay: Herbicidal activity against Cyperus rotundus assessed as total dry weight at 0.75 kg/ha applied as spray before seed sowing (reference value: 4.1 MT/ha); format: functional
Malva sylvestris [39] = assay: Herbicidal activity against Malva sylvestris assessed as decrease in total dry weight at 0.75 kg/ha applied as spray during post-emergence relative to weed-infested control; format: functional; set-up: scale not given: the % may be the effect or the level left
Chenopodiastrum murale [40] = assay: Herbicidal activity against Chenopodium murale assessed as decrease in total dry weight at 0.75 kg/ha applied as spray during postemergence relative to weed-infested control; format: functional; set-up: scale not given: the % may be the effect or the level left
Chenopodiastrum murale [41] = assay: Herbicidal activity against Chenopodium murale assessed as total fresh weight at 0.75 kg/ha applied as spray during postemergence (reference value: 23.6 MT/ha); format: functional
Allium cepa [42] = assay: Phytotoxicity in Allium cepa (onion) seedling assessed as total fresh weight at 0.75 kg/ha applied as spray during post-emergence (reference value: 7.71 MT/ha); format: organism-based; conditions: in vivo, other

COC(=O)c1c(Cl)c(Cl)c(C(=O)OC)c(Cl)c1Cl [DACTHAL]
Activity (Malva sylvestris [1]): 3.63 MT/ha | Activity (Allium cepa [2]): 8.2 MT/ha | Activity (Cyperus rotundus [3]): 19 MT/ha | Activity (Chenopodiastrum murale [4]): 19 MT/ha | Activity (Chenopodiastrum murale [5]): 3.63 MT/ha | Activity (Cyperus rotundus [6]): 3.63 MT/ha | Activity (Malva sylvestris [7]): 19 MT/ha

CN(C)C(=O)C(c1ccccc1)c1ccccc1 [DIPHENAMIDE]
Activity (Allium cepa [8]): 5.16 MT/ha | Activity (Cyperus rotundus [9]): 4.79 MT/ha | Activity (Malva sylvestris [10]): 4.79 MT/ha | Activity (Chenopodiastrum murale [11]): 4.79 MT/ha | Activity (Chenopodiastrum murale [12]): 21.5 MT/ha | Activity (Cyperus rotundus [13]): 21.5 MT/ha | Activity (Malva sylvestris [14]): 21.5 MT/ha

CNC(=O)N(C)c1nc2ccccc2s1 [METHABENZTHIAZURON]
Activity (Chenopodiastrum murale [15]): 2.85 MT/ha | Activity (Chenopodiastrum murale [16]): 9 MT/ha | Activity (Allium cepa [17]): 7.18 MT/ha | Activity (Cyperus rotundus [18]): 9 MT/ha | Activity (Malva sylvestris [19]): 2.85 MT/ha | Activity (Cyperus rotundus [20]): 2.85 MT/ha | Activity (Malva sylvestris [21]): 9 MT/ha

CSc1nnc(C(C)(C)C)c(=O)n1N [METRIBUZIN]
Activity (Cyperus rotundus [22]): 17.1 MT/ha | Activity (Allium cepa [23]): 7.64 MT/ha | Activity (Chenopodiastrum murale [24]): 3.32 MT/ha | Activity (Chenopodiastrum murale [25]): 17.1 MT/ha | Activity (Malva sylvestris [26]): 3.32 MT/ha | Activity (Malva sylvestris [27]): 17.1 MT/ha | Activity (Cyperus rotundus [28]): 3.32 MT/ha

CC(C)Oc1cc(-n2nc(C(C)(C)C)oc2=O)c(Cl)cc1Cl [OXADIAZON]
Activity (Chenopodiastrum murale [29]): 2.37 MT/ha | Activity (Malva sylvestris [30]): 2.37 MT/ha | Activity (Cyperus rotundus [31]): 57% | Activity (Chenopodiastrum murale [32]): 13.3 MT/ha | Activity (Malva sylvestris [33]): 13.3 MT/ha | Activity (Allium cepa [34]): 13.37 MT/ha | Activity (Cyperus rotundus [35]): 10.8 MT/ha | Activity (Cyperus rotundus [36]): 13.3 MT/ha | Activity (Malva sylvestris [37]): 10.8 MT/ha | Activity (Cyperus rotundus [38]): 2.37 MT/ha | Activity (Malva sylvestris [39]): 57% | Activity (Chenopodiastrum murale [40]): 57% | Activity (Chenopodiastrum murale [41]): 10.8 MT/ha | Activity (Allium cepa [42]): 15.69 MT/ha
